In the experiment the target is RIPK2 (Homo sapiens (Human), UniProt O43353). As to the kind of experiment: RIPK2 inhibition, ADP-Glo Kinase Assay. The settings on record: 8His-RIPK2 FL enzyme 8 nM, ATP 5 μM, 15 minutes pre-incubation, 60 minutes at 37° C., luminescence. It is filed as biochemical. Here is the method:
RIPK2 inhibition for compounds in Table 1 are shown in Table 3 and measured using the following method:
Materials: White, 384-well optiplates (cat.no. 6007290) were purchased from PerkinElmer. The V9103X ADP-Glo Kinase Assay Custom (including ultra-pure ATP) was purchased from Promega. 8His-RIPK2 FL was prepared in-house. All other materials were of highest grade commercially available.
Method: In a 384-well plate, test compound diluted in assay buffer (1% DMSO final) is mixed with 8His-RIPK2 FL enzyme (final concentration of 8 nM). After 15 minutes of pre-incubation at RT, ATP dissolved in assay buffer is added (final concentration 5 μM). The mixture is incubated for 60 minutes at 37° C. in a humidified incubator. Then, ADP Glo Reagent is added, followed by a 40 minute incubation at rt. Finally, Kinase Detection Reagent is added and the entire mixture is incubated for 40 min at RT. The luminescence signal is measured with an Envision reader to determine the amount of ADP produced. Assay buffer: 25 mM HEPES (4-(2-hydroxyethyl)-1-piperazinethanesulfonic acid), 0.1% BSA (bovine serum albumin), 10 mM MgCl2, 5 mM MnCl2, 50 mM KCl, 0.01% CHAPS (3-[(3-cholamidopropyl)dimethylammonio]-1-propanesulfonate), 10 μM Na3VO4, 1 mM DTT (dithiothreitol), pH 7.5 All plates contain wells with vehicle controls instead of compound (1% DMSO) as reference for the high signal (100% CTL (100% of control), high signal), and wells without enzyme as reference for low signal (0% CTL, low signal). The luminescent signal generated is proportional to the ADP produced and is correlated with enzyme activity. The analysis of the data is performed by the calculation of the percentage of ADP production in the presence of the test compound and RIPK2 as compared to the ADP production in the presence of RIPK2 plus 50 μM Gefitinib. (RLU (relative luminescence units) (sample)−RLU(low control))*100/(RLU(high value)−RLU(low control)) [RLU=relative luminescence units].
A general note: ADP-Glo turns the ADP formed in a reaction into a luminescent signal.

SMILES strings stand for the structures.

Here are results for 14 compounds from patent US10138222B2, “Substituted benzamides as RIPK2 inhibitors” (Boehringer Ingelheim International GmbH, priority 2016, dated 2018).

Sequence of RIPK2 (O43353 whole entry): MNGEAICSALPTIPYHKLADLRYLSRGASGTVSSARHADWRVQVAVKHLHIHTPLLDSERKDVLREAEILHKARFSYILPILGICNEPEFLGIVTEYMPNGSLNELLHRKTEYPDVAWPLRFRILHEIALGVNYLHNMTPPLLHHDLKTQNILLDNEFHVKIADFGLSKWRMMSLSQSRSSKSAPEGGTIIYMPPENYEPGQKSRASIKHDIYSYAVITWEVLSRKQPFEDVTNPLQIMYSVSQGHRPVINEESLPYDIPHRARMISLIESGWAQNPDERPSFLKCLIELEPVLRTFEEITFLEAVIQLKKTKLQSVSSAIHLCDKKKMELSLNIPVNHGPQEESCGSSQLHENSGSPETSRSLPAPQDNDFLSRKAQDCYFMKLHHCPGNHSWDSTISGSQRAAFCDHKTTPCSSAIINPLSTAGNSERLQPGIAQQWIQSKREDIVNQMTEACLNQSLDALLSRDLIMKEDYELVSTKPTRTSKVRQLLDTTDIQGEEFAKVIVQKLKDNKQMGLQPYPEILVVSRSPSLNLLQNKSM

As usually defined, the IC50 is the point on the concentration scale where inhibition reaches its midpoint. On to `Cc1ccc(C(=O)NC2CC2)cc1-c1cnn(-c2cncc(N(C)C)n2)c1` [Example 118, N-cyclopropyl-3-{1-[6-(dimethylamino)pyrazin-2-yl]-1H-pyrazol-4-yl}-4-methylbenzamide], for which inhibition was half-maximal at 110 nM (IC50).

In turn, `Cc1ccc(C(=O)NC2CC2)cc1-c1cnn(-c2cncc(OC3CCC(C#N)C3)c2)c1` (centres unmarked) [Example 151, 3-(1-{5-[(3-cyanocyclopentyl)oxy]pyridin-3-yl}-1H-pyrazol-4-yl)-N-cyclopropyl-4-methylbenzamide] displayed an IC50 of 6.4 nM. Next, `Cc1ccc(C(=O)NC2CC2)cc1-c1cnn(-c2cccnc2)c1` [Example 34, N-cyclopropyl-4-methyl-3-[1-(pyridin-3-yl)-1H-pyrazol-4-yl] benzamide]: 38 nM; `CC(=O)NC(C)(C)c1cncc(-n2cc(-c3cc(C(=O)NC4CC4)ccc3C)cn2)c1` [Example 50, N-cyclopropyl-3-{1-[5-(2-acetamidopropan-2-yl)pyridin-3-yl]-1H-pyrazol-4-yl}-4-methylbenzamide]: 570 nM. In turn, `Cc1ccc(C(=O)NC2CC2)cc1-c1cnn(-c2cncc(NC3CCN(C(=O)OC(C)(C)C)CC3)c2)c1` [Example 73, tert-butyl 4-[(5-{4-[5-(cyclopropylcarbamoyl)-2-methyl-phenyl]-1H-pyrazol-1-yl}pyridin-3-yl)amino]piperidine-1-carboxylate] returned an IC50 of 15 nM. Next, `Cc1ccc(C(=O)NC2CC2)cc1-c1cnn(-c2cncc(NC3CCNCC3)c2)c1` [Example 92, N-cyclopropyl-4-methyl-3-(1-{5-[(piperidin-4-yl)amino]pyridin-3-yl}-1H-pyrazol-4-yl)benzamide]: 1.5 nM; `Cc1ccc(C(=O)NC2CC2)cc1-c1cnn(-c2cncc(NC3CCN(CC4COCCO4)CC3)c2)c1` (centres unmarked) [Example 168, N-cyclopropyl-3-[1-(5-{[1-(1,4-dioxan-2-ylmethyl)piperidin-4-yl]amino}pyridin-3-yl)-1H-pyrazol-4-yl]-4-methylbenzamide]: 0.95 nM.

The compound `COc1cncc(-n2cnc(-c3cc(C(=O)NC4CC4)ccc3C)c2)c1` [Example 53, N-cyclopropyl-3-[1-(5-methoxypyridin-3-yl)-1H-imidazol-4-yl]-4-methyl-benzamide] yielded an IC50 of 7.6 nM. `Cc1ccc(C(=O)NC2CC2)cc1-c1cnn(-c2cncc(C3(O)CCOC3)c2)c1` (centres unmarked) [Example 138, N-cyclopropyl-3-{1-[5-(3-hydroxy-oxolan-3-yl)pyridin-3-yl]-1H-pyrazol-4-yl}-4-methylbenzamide] came in with an IC50 of 25 nM. Next, `Cc1ccc(C(=O)NC2CC2)cc1-c1cnn(-c2cncc(C3(C#N)CC3)c2)c1` [Example 131, 3-{1-[5-(1-cyanocyclopropyl)pyridin-3-yl]-1H-pyrazol-4-yl}-N-cyclo-propyl-4-methylbenzamide]: 11 nM. Next, `Cc1cc(F)c(C(=O)NC2CC2)cc1-c1cnn(-c2cncc(N3CCC(N(C)C)CC3)c2)c1` [Example 171, N-Cyclopropyl-5-[1-(4-dimethyl-amino-3,4,5,6-tetrahydro-2H-[1,3″]bipyridinyl-5″-yl)-1H-pyrazol-4-yl]-2-fluoro-4-methyl-benzamide]: 1.4 nM. For `Cc1ccc(C(=O)NC2CC2)cc1-c1cnn(-c2cncc(NC3CCN(CC4CCOC4)CC3)c2)c1` (centres unmarked) [Example 154, N-cyclopropyl-4-methyl-3-[1-(5-{[1-(oxolan-3-ylmethyl)piperidin-4-yl]amino}pyridin-3-yl)-1H-pyrazol-4-yl]benzamide] the value was 1.8 nM. In turn, `Cc1ccc(C(=O)NC2CC2)cc1-c1cnn(-c2cncc(N[C@@H]3C[C@H]4CC[C@@H]3O4)c2)c1` [Example 66, N-cyclopropyl-4-methyl-3-[1-(5-{[(1S,2R,4R)-7-oxabicyclo[2.2.1]heptan-2-yl]amino}pyridin-3-yl)-1H-pyrazol-4-yl]benzamide] had an IC50 of 3.9 nM. The compound `Cc1cc(F)c(C(=O)NC2CC2)cc1-c1cnn(-c2cncc(N[C@H]3CCN(C)CC3(F)F)c2)c1` (single isomer, unassigned) [Example 175] gave an IC50 of 1.7 nM.
